Laboratory results reported in the supplement of paper PMC11665569.
± gives the standard deviation of the averaged measurements.

Assays:
Assay in all cases: relative viability (fraction of vehicle control); higher = more viable / less inhibited
Conditions in all cases: treatment time: 5 days
H1373 = test system: H1373
Method: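 CCK-8 viability of H1373 cells with empty vector or constitutively active YAP S127A, treated with KRAS G12C inhibitors for 5 days, normalised to vehicle control.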

H358 = test system: H358
Method: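 CCK-8 viability of H358 cells with empty vector or constitutively active YAP S127A, treated with KRAS G12C inhibitors for 5 days. Absorbance at 450 nm normalised to vehicle control.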

MIAPACA2 = test system: MIAPACA2
Method: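 CCK-8 viability of MIAPACA2 cells with empty vector or constitutively active YAP S127A, treated with KRAS G12C inhibitors for 5 days, normalised to vehicle control.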

H2030 = test system: H2030
Method: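 CCK-8 viability of H2030 cells transfected with control, YAP/TAZ or TEAD1-4 siRNAs and treated with KRAS G12C inhibitors for 5 days. Values are normalised to vehicle control.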

C=C(F)C(=O)N1CCN(c2nc(OC[C@@H]3CCCN3C)nc3c2CCN(c2cccc4cccc(Cl)c24)C3)C[C@@H]1CC#N [MRTX849]
Conditions	relative viability
H358, log10 concentration (uM): 0, ectopic expression: YAP S127A	0.6 ± 0.033
H358, log10 concentration (uM): 0, ectopic expression: empty vector (YAP experiment)	0.139 ± 0.025
H358, log10 concentration (uM): 0.69897, ectopic expression: YAP S127A	0.144 ± 0.069
H358, log10 concentration (uM): 0.69897, ectopic expression: empty vector (YAP experiment)	0.0333 ± 0.033
H358, log10 concentration (uM): -0.30103, ectopic expression: YAP S127A	0.811 ± 0.22
H358, log10 concentration (uM): -0.30103, ectopic expression: empty vector (YAP experiment)	0.217 ± 0.076
H358, log10 concentration (uM): -1, ectopic expression: YAP S127A	0.733 ± 0.13
H358, log10 concentration (uM): -1, ectopic expression: empty vector (YAP experiment)	0.328 ± 0.1
H358, log10 concentration (uM): -1.30103, ectopic expression: YAP S127A	0.811 ± 0.069
H358, log10 concentration (uM): -1.30103, ectopic expression: empty vector (YAP experiment)	0.361 ± 0.0096
H358, log10 concentration (uM): -2, ectopic expression: YAP S127A	1.02 ± 0.16
H358, log10 concentration (uM): -2, ectopic expression: empty vector (YAP experiment)	0.678 ± 0.098
H358, log10 concentration (uM): -2.30103, ectopic expression: YAP S127A	1.1 ± 0.14
H358, log10 concentration (uM): -2.30103, ectopic expression: empty vector (YAP experiment)	0.783 ± 0.044
H358, log10 concentration (uM): -3, ectopic expression: YAP S127A	1.27 ± 0.033
H358, log10 concentration (uM): -3, ectopic expression: empty vector (YAP experiment)	0.828 ± 0.035
H358, log10 concentration (uM): -4, ectopic expression: YAP S127A	1.12 ± 0.038
H358, log10 concentration (uM): -4, ectopic expression: empty vector (YAP experiment)	0.778 ± 0.035
H1373, log10 concentration (uM): 0, ectopic expression: YAP S127A	0.547 ± 0.044
H1373, log10 concentration (uM): 0, ectopic expression: empty vector (YAP experiment)	0.301 ± 0.0055
H1373, log10 concentration (uM): 0.69897, ectopic expression: YAP S127A	0.0844 ± 0.017
H1373, log10 concentration (uM): 0.69897, ectopic expression: empty vector (YAP experiment)	0.0167 ± 0.003
H1373, log10 concentration (uM): -0.30103, ectopic expression: YAP S127A	0.529 ± 0.036
H1373, log10 concentration (uM): -0.30103, ectopic expression: empty vector (YAP experiment)	0.307 ± 0.02
H1373, log10 concentration (uM): -1, ectopic expression: YAP S127A	0.591 ± 0.028
H1373, log10 concentration (uM): -1, ectopic expression: empty vector (YAP experiment)	0.436 ± 0.012
H1373, log10 concentration (uM): -1.30103, ectopic expression: YAP S127A	0.578 ± 0.053
H1373, log10 concentration (uM): -1.30103, ectopic expression: empty vector (YAP experiment)	0.45 ± 0.035
H1373, log10 concentration (uM): -2, ectopic expression: YAP S127A	0.781 ± 0.18
H1373, log10 concentration (uM): -2, ectopic expression: empty vector (YAP experiment)	0.863 ± 0.093
H1373, log10 concentration (uM): -2.30103, ectopic expression: YAP S127A	0.818 ± 0.066
H1373, log10 concentration (uM): -2.30103, ectopic expression: empty vector (YAP experiment)	0.904 ± 0.063
H1373, log10 concentration (uM): -3, ectopic expression: YAP S127A	0.938 ± 0.066
H1373, log10 concentration (uM): -3, ectopic expression: empty vector (YAP experiment)	1.07 ± 0.074
H1373, log10 concentration (uM): -4, ectopic expression: YAP S127A	1.01 ± 0.012
H1373, log10 concentration (uM): -4, ectopic expression: empty vector (YAP experiment)	0.995 ± 0.062
H2030, log10 concentration (uM): 0, siRNA knockdown: TEAD1-4 siRNA 1	0.333 ± 0.042
H2030, log10 concentration (uM): 0, siRNA knockdown: TEAD1-4 siRNA 2	0.289 ± 0.033
H2030, log10 concentration (uM): 0, siRNA knockdown: YAP/TAZ siRNA 1	0.531 ± 0.042
H2030, log10 concentration (uM): 0, siRNA knockdown: YAP/TAZ siRNA 2	0.441 ± 0.099
H2030, log10 concentration (uM): 0, siRNA knockdown: negative control siRNA	0.768 ± 0.29
H2030, log10 concentration (uM): 0.69897, siRNA knockdown: TEAD1-4 siRNA 1	0.0176 ± 0.0044
H2030, log10 concentration (uM): 0.69897, siRNA knockdown: TEAD1-4 siRNA 2	0.0364
H2030, log10 concentration (uM): 0.69897, siRNA knockdown: YAP/TAZ siRNA 1	0.0187 ± 0.0039
H2030, log10 concentration (uM): 0.69897, siRNA knockdown: YAP/TAZ siRNA 2	0.0145 ± 0.0049
H2030, log10 concentration (uM): 0.69897, siRNA knockdown: negative control siRNA	0.162 ± 0.12
H2030, log10 concentration (uM): -0.30103, siRNA knockdown: TEAD1-4 siRNA 1	0.413 ± 0.04
H2030, log10 concentration (uM): -0.30103, siRNA knockdown: TEAD1-4 siRNA 2	0.358 ± 0.016
H2030, log10 concentration (uM): -0.30103, siRNA knockdown: YAP/TAZ siRNA 1	0.458 ± 0.14
H2030, log10 concentration (uM): -0.30103, siRNA knockdown: YAP/TAZ siRNA 2	0.496 ± 0.066
H2030, log10 concentration (uM): -0.30103, siRNA knockdown: negative control siRNA	0.814 ± 0.24
H2030, log10 concentration (uM): -1, siRNA knockdown: TEAD1-4 siRNA 1	0.468 ± 0.053
H2030, log10 concentration (uM): -1, siRNA knockdown: TEAD1-4 siRNA 2	0.437 ± 0.055
H2030, log10 concentration (uM): -1, siRNA knockdown: YAP/TAZ siRNA 1	0.409 ± 0.25
H2030, log10 concentration (uM): -1, siRNA knockdown: YAP/TAZ siRNA 2	0.238 ± 0.3
H2030, log10 concentration (uM): -1, siRNA knockdown: negative control siRNA	0.814 ± 0.23
H2030, log10 concentration (uM): -1.30103, siRNA knockdown: TEAD1-4 siRNA 1	0.473 ± 0.06
H2030, log10 concentration (uM): -1.30103, siRNA knockdown: TEAD1-4 siRNA 2	0.428 ± 0.039
H2030, log10 concentration (uM): -1.30103, siRNA knockdown: YAP/TAZ siRNA 1	0.625 ± 0.072
H2030, log10 concentration (uM): -1.30103, siRNA knockdown: YAP/TAZ siRNA 2	0.322 ± 0.18
H2030, log10 concentration (uM): -1.30103, siRNA knockdown: negative control siRNA	0.795 ± 0.24
H2030, log10 concentration (uM): -2, siRNA knockdown: TEAD1-4 siRNA 1	0.676 ± 0.085
H2030, log10 concentration (uM): -2, siRNA knockdown: TEAD1-4 siRNA 2	0.707 ± 0.1
H2030, log10 concentration (uM): -2, siRNA knockdown: YAP/TAZ siRNA 1	0.901 ± 0.071
H2030, log10 concentration (uM): -2, siRNA knockdown: YAP/TAZ siRNA 2	0.521 ± 0.31
H2030, log10 concentration (uM): -2, siRNA knockdown: negative control siRNA	0.836 ± 0.2
H2030, log10 concentration (uM): -2.30103, siRNA knockdown: TEAD1-4 siRNA 1	0.774 ± 0.058
H2030, log10 concentration (uM): -2.30103, siRNA knockdown: TEAD1-4 siRNA 2	0.625 ± 0.058
H2030, log10 concentration (uM): -2.30103, siRNA knockdown: YAP/TAZ siRNA 1	0.958 ± 0.073
H2030, log10 concentration (uM): -2.30103, siRNA knockdown: YAP/TAZ siRNA 2	0.707 ± 0.14
H2030, log10 concentration (uM): -2.30103, siRNA knockdown: negative control siRNA	0.836 ± 0.19
H2030, log10 concentration (uM): -3, siRNA knockdown: TEAD1-4 siRNA 1	1.02 ± 0.028
H2030, log10 concentration (uM): -3, siRNA knockdown: TEAD1-4 siRNA 2	0.844 ± 0.084
H2030, log10 concentration (uM): -3, siRNA knockdown: YAP/TAZ siRNA 1	1.07 ± 0.071
H2030, log10 concentration (uM): -3, siRNA knockdown: YAP/TAZ siRNA 2	0.756 ± 0.18
H2030, log10 concentration (uM): -3, siRNA knockdown: negative control siRNA	0.909 ± 0.11
H2030, log10 concentration (uM): -4, siRNA knockdown: TEAD1-4 siRNA 1	1.14 ± 0.055
H2030, log10 concentration (uM): -4, siRNA knockdown: TEAD1-4 siRNA 2	0.984 ± 0.074
H2030, log10 concentration (uM): -4, siRNA knockdown: YAP/TAZ siRNA 1	1.17 ± 0.027
H2030, log10 concentration (uM): -4, siRNA knockdown: YAP/TAZ siRNA 2	0.911 ± 0.17
H2030, log10 concentration (uM): -4, siRNA knockdown: negative control siRNA	0.97 ± 0.048
MIAPACA2, log10 concentration (uM): 0, ectopic expression: YAP S127A	0.696 ± 0.059
MIAPACA2, log10 concentration (uM): 0, ectopic expression: empty vector (YAP experiment)	0.0786 ± 0.0051
MIAPACA2, log10 concentration (uM): 0.69897, ectopic expression: YAP S127A	0.15 ± 0.012
MIAPACA2, log10 concentration (uM): 0.69897, ectopic expression: empty vector (YAP experiment)	0.0127 ± 0.0017
MIAPACA2, log10 concentration (uM): -0.30103, ectopic expression: YAP S127A	0.687 ± 0.029
MIAPACA2, log10 concentration (uM): -0.30103, ectopic expression: empty vector (YAP experiment)	0.0877 ± 0.0072
MIAPACA2, log10 concentration (uM): -1, ectopic expression: YAP S127A	0.902 ± 0.033
MIAPACA2, log10 concentration (uM): -1, ectopic expression: empty vector (YAP experiment)	0.217 ± 0.03
MIAPACA2, log10 concentration (uM): -1.30103, ectopic expression: YAP S127A	0.924 ± 0.039
MIAPACA2, log10 concentration (uM): -1.30103, ectopic expression: empty vector (YAP experiment)	0.309 ± 0.055
MIAPACA2, log10 concentration (uM): -2, ectopic expression: YAP S127A	0.979 ± 0.082
MIAPACA2, log10 concentration (uM): -2, ectopic expression: empty vector (YAP experiment)	0.917 ± 0.12
MIAPACA2, log10 concentration (uM): -2.30103, ectopic expression: YAP S127A	1.01 ± 0.032
MIAPACA2, log10 concentration (uM): -2.30103, ectopic expression: empty vector (YAP experiment)	0.986 ± 0.038
MIAPACA2, log10 concentration (uM): -3, ectopic expression: YAP S127A	1.06 ± 0.044
MIAPACA2, log10 concentration (uM): -3, ectopic expression: empty vector (YAP experiment)	0.964 ± 0.057
MIAPACA2, log10 concentration (uM): -4, ectopic expression: YAP S127A	0.993 ± 0.054
MIAPACA2, log10 concentration (uM): -4, ectopic expression: empty vector (YAP experiment)	0.997 ± 0.043
